Measurements taken from publication PMC6409085, “Three odorant-binding proteins are involved in the behavioral response of Sogatella furcifera to rice plant volatiles” (PeerJ, 2019).
Values joined by “and” are separate entries in the source; they are usually repeats but may differ in a detail not shown here. Identical values can stand only once.

Key:
Assay in all cases: biochemical
Type in all cases: binding
SfurOBP1 = SfurOBP1 (Sogatella furcifera, UniProt V5T8N5); settings: for Fluorescence competitive binding assay, fluorescence intensity: OBP1, three replicate columns
SfurOBP1, sequence (V5T8N5 entry or part of it): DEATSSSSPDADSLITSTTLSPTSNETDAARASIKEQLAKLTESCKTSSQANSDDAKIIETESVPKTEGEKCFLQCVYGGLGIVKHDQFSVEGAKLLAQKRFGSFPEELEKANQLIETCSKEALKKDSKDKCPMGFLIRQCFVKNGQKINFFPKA
Outline: (§1)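 Fluorescence competitive binding used 2.0 µM SfurOBP and 2.0 µM 1-NPN reporter in 50 mM Tris-HCl, pH 7.4, with odorants at 2-20 µM. Fluorescence was read 2 min after adding the odorant (excitation 337 nm, emission 390-490 nm), in triplicate. Ki was calculated from IC50 as IC50/(1 + [1-NPN]/K1-NPN).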

SfurOBP11 = SfurOBP11 (Sogatella furcifera, UniProt V5T6E3)
SfurOBP11, sequence (V5T6E3 entry or part of it): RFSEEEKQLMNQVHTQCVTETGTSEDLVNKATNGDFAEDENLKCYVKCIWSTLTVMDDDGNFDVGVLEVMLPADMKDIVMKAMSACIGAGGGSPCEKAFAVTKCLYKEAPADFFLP
Outline: as §1

SfurOBP2 = SfurOBP2 (Sogatella furcifera, UniProt V5T759)
SfurOBP2, sequence (V5T759 entry or part of it): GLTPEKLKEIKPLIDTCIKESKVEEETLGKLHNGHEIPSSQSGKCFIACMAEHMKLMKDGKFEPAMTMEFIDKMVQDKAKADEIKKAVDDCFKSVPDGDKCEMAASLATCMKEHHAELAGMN
Outline: as §1

SfurOBP3 = SfurOBP3 (Sogatella furcifera, UniProt V5T818); settings: for Fluorescence competitive binding assay, fluorescence intensity: OBP3, three replicate columns
SfurOBP3, sequence (V5T818 entry or part of it): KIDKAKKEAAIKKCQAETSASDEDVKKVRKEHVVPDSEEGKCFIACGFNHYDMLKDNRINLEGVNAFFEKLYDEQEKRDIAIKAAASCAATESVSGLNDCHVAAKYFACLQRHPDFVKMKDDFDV
Outline: as §1

CCCCCCCCCCOCCCCCCCCCC [didecyl ether]
Fluorescence competitive binding assay, fluorescence intensity (SfurOBP1; ligand concentration 2 (μM)): 13439 and 10181 and 10387 | Fluorescence competitive binding assay, fluorescence intensity (SfurOBP1; ligand concentration 4 (μM)): 12999 and 14054 and 13054 | Fluorescence competitive binding assay, fluorescence intensity (SfurOBP1; ligand concentration 6 (μM)): 17843 and 17435 and 18755 | Fluorescence competitive binding assay, fluorescence intensity (SfurOBP1; ligand concentration 8 (μM)): 20344 and 21618 and 19391 | Fluorescence competitive binding assay, fluorescence intensity (SfurOBP1; ligand concentration 10 (μM)): 25143 and 20920 and 29597 | Fluorescence competitive binding assay, fluorescence intensity (SfurOBP1; ligand concentration 12 (μM)): 25050 and 26471 and 24718 | Fluorescence competitive binding assay, fluorescence intensity (SfurOBP1; ligand concentration 14 (μM)): 31790 and 28307 and 28799 | Fluorescence competitive binding assay, fluorescence intensity (SfurOBP1; ligand concentration 16 (μM)): 25660 and 26360 and 27874 | Fluorescence competitive binding assay, fluorescence intensity (SfurOBP1; ligand concentration 18 (μM)): 34663 and 37908 and 36994 | Fluorescence competitive binding assay, fluorescence intensity (SfurOBP1; ligand concentration 20 (μM)): 37718 and 33824 and 31648 | IC50 (SfurOBP1; SfurOBP1, protein and 1-NPN both 2.0 µM, competitor 2-20 µM, read-out: IC50): > 20 µM | IC50 (SfurOBP11; SfurOBP11, protein and 1-NPN both 2.0 µM, competitor 2-20 µM, read-out: IC50): > 20 µM | Fluorescence intensity, fluorescence competitive binding assay, OBP11 (SfurOBP11; ligand concentration 2, replicate 1): 43164 | Fluorescence intensity, fluorescence competitive binding assay, OBP11 (SfurOBP11; ligand concentration 2, replicate 2): 38605 | Fluorescence intensity, fluorescence competitive binding assay, OBP11 (SfurOBP11; ligand concentration 2, replicate 3): 37407 | Fluorescence intensity, fluorescence competitive binding assay, OBP11 (SfurOBP11; ligand concentration 4, replicate 1): 45394 | Fluorescence intensity, fluorescence competitive binding assay, OBP11 (SfurOBP11; ligand concentration 4, replicate 2): 44519 | Fluorescence intensity, fluorescence competitive binding assay, OBP11 (SfurOBP11; ligand concentration 4, replicate 3): 44324 | Fluorescence intensity, fluorescence competitive binding assay, OBP11 (SfurOBP11; ligand concentration 6, replicate 1): 52018 | Fluorescence intensity, fluorescence competitive binding assay, OBP11 (SfurOBP11; ligand concentration 6, replicate 2): 51596 | Fluorescence intensity, fluorescence competitive binding assay, OBP11 (SfurOBP11; ligand concentration 6, replicate 3): 52439 | Fluorescence intensity, fluorescence competitive binding assay, OBP11 (SfurOBP11; ligand concentration 8, replicate 1): 52547 | Fluorescence intensity, fluorescence competitive binding assay, OBP11 (SfurOBP11; ligand concentration 8, replicate 2): 53605 | Fluorescence intensity, fluorescence competitive binding assay, OBP11 (SfurOBP11; ligand concentration 8, replicate 3): 57390 | Fluorescence intensity, fluorescence competitive binding assay, OBP11 (SfurOBP11; ligand concentration 10, replicate 1): 53386 | Fluorescence intensity, fluorescence competitive binding assay, OBP11 (SfurOBP11; ligand concentration 10, replicate 2): 50348 | Fluorescence intensity, fluorescence competitive binding assay, OBP11 (SfurOBP11; ligand concentration 10, replicate 3): 61467 | Fluorescence intensity, fluorescence competitive binding assay, OBP11 (SfurOBP11; ligand concentration 12, replicate 1): 60450 | Fluorescence intensity, fluorescence competitive binding assay, OBP11 (SfurOBP11; ligand concentration 12, replicate 2): 60637 | Fluorescence intensity, fluorescence competitive binding assay, OBP11 (SfurOBP11; ligand concentration 12, replicate 3): 60823 | Fluorescence intensity, fluorescence competitive binding assay, OBP11 (SfurOBP11; ligand concentration 14, replicate 1): 64649 | Fluorescence intensity, fluorescence competitive binding assay, OBP11 (SfurOBP11; ligand concentration 14, replicate 2): 70642 | Fluorescence intensity, fluorescence competitive binding assay, OBP11 (SfurOBP11; ligand concentration 14, replicate 3): 65311 | Fluorescence intensity, fluorescence competitive binding assay, OBP11 (SfurOBP11; ligand concentration 16, replicate 1): 64270 | Fluorescence intensity, fluorescence competitive binding assay, OBP11 (SfurOBP11; ligand concentration 16, replicate 2): 67002 | Fluorescence intensity, fluorescence competitive binding assay, OBP11 (SfurOBP11; ligand concentration 16, replicate 3): 65982 | Fluorescence intensity, fluorescence competitive binding assay, OBP11 (SfurOBP11; ligand concentration 18, replicate 1): 78706 | Fluorescence intensity, fluorescence competitive binding assay, OBP11 (SfurOBP11; ligand concentration 18, replicate 2): 81987 | Fluorescence intensity, fluorescence competitive binding assay, OBP11 (SfurOBP11; ligand concentration 18, replicate 3): 75370 | Fluorescence intensity, fluorescence competitive binding assay, OBP11 (SfurOBP11; ligand concentration 20, replicate 1): 97463 | Fluorescence intensity, fluorescence competitive binding assay, OBP11 (SfurOBP11; ligand concentration 20, replicate 2): 75326 | Fluorescence intensity, fluorescence competitive binding assay, OBP11 (SfurOBP11; ligand concentration 20, replicate 3): 72923 | IC50 (SfurOBP2; SfurOBP2, protein and 1-NPN both 2.0 µM, competitor 2-20 µM, read-out: IC50): > 20 µM | Fluorescence competitive binding assay, OBP2 (raw fluorescence reading) (SfurOBP2; ligand concentration 2 (unit not given), replicate column 1 of 3): 18915 | Fluorescence competitive binding assay, OBP2 (raw fluorescence reading) (SfurOBP2; ligand concentration 2 (unit not given), replicate column 2 of 3): 20597 | Fluorescence competitive binding assay, OBP2 (raw fluorescence reading) (SfurOBP2; ligand concentration 2 (unit not given), replicate column 3 of 3): 23440 | Fluorescence competitive binding assay, OBP2 (raw fluorescence reading) (SfurOBP2; ligand concentration 4 (unit not given), replicate column 1 of 3): 24181 | Fluorescence competitive binding assay, OBP2 (raw fluorescence reading) (SfurOBP2; ligand concentration 4 (unit not given), replicate column 2 of 3): 28014 | Fluorescence competitive binding assay, OBP2 (raw fluorescence reading) (SfurOBP2; ligand concentration 4 (unit not given), replicate column 3 of 3): 25410 | Fluorescence competitive binding assay, OBP2 (raw fluorescence reading) (SfurOBP2; ligand concentration 6 (unit not given), replicate column 1 of 3): 34688 | Fluorescence competitive binding assay, OBP2 (raw fluorescence reading) (SfurOBP2; ligand concentration 6 (unit not given), replicate column 2 of 3): 31794 | Fluorescence competitive binding assay, OBP2 (raw fluorescence reading) (SfurOBP2; ligand concentration 6 (unit not given), replicate column 3 of 3): 34987 | Fluorescence competitive binding assay, OBP2 (raw fluorescence reading) (SfurOBP2; ligand concentration 8 (unit not given), replicate column 1 of 3): 33082 | Fluorescence competitive binding assay, OBP2 (raw fluorescence reading) (SfurOBP2; ligand concentration 8 (unit not given), replicate column 2 of 3): 40303 | Fluorescence competitive binding assay, OBP2 (raw fluorescence reading) (SfurOBP2; ligand concentration 8 (unit not given), replicate column 3 of 3): 37763 | Fluorescence competitive binding assay, OBP2 (raw fluorescence reading) (SfurOBP2; ligand concentration 10 (unit not given), replicate column 1 of 3): 37285 | Fluorescence competitive binding assay, OBP2 (raw fluorescence reading) (SfurOBP2; ligand concentration 10 (unit not given), replicate column 2 of 3): 44653 | Fluorescence competitive binding assay, OBP2 (raw fluorescence reading) (SfurOBP2; ligand concentration 10 (unit not given), replicate column 3 of 3): 45169 | Fluorescence competitive binding assay, OBP2 (raw fluorescence reading) (SfurOBP2; ligand concentration 12 (unit not given), replicate column 1 of 3): 40538 | Fluorescence competitive binding assay, OBP2 (raw fluorescence reading) (SfurOBP2; ligand concentration 12 (unit not given), replicate column 2 of 3): 46457 | Fluorescence competitive binding assay, OBP2 (raw fluorescence reading) (SfurOBP2; ligand concentration 12 (unit not given), replicate column 3 of 3): 42564 | Fluorescence competitive binding assay, OBP2 (raw fluorescence reading) (SfurOBP2; ligand concentration 14 (unit not given), replicate column 1 of 3): 47395 | Fluorescence competitive binding assay, OBP2 (raw fluorescence reading) (SfurOBP2; ligand concentration 14 (unit not given), replicate column 2 of 3): 46610 | Fluorescence competitive binding assay, OBP2 (raw fluorescence reading) (SfurOBP2; ligand concentration 14 (unit not given), replicate column 3 of 3): 49253 | Fluorescence competitive binding assay, OBP2 (raw fluorescence reading) (SfurOBP2; ligand concentration 16 (unit not given), replicate column 1 of 3): 41133 | Fluorescence competitive binding assay, OBP2 (raw fluorescence reading) (SfurOBP2; ligand concentration 16 (unit not given), replicate column 2 of 3): 50168 | Fluorescence competitive binding assay, OBP2 (raw fluorescence reading) (SfurOBP2; ligand concentration 16 (unit not given), replicate column 3 of 3): 50416 | Fluorescence competitive binding assay, OBP2 (raw fluorescence reading) (SfurOBP2; ligand concentration 18 (unit not given), replicate column 1 of 3): 50240 | Fluorescence competitive binding assay, OBP2 (raw fluorescence reading) (SfurOBP2; ligand concentration 18 (unit not given), replicate column 2 of 3): 52962 | Fluorescence competitive binding assay, OBP2 (raw fluorescence reading) (SfurOBP2; ligand concentration 18 (unit not given), replicate column 3 of 3): 54896 | Fluorescence competitive binding assay, OBP2 (raw fluorescence reading) (SfurOBP2; ligand concentration 20 (unit not given), replicate column 1 of 3): 51479 | Fluorescence competitive binding assay, OBP2 (raw fluorescence reading) (SfurOBP2; ligand concentration 20 (unit not given), replicate column 2 of 3): 53666 | Fluorescence competitive binding assay, OBP2 (raw fluorescence reading) (SfurOBP2; ligand concentration 20 (unit not given), replicate column 3 of 3): 47381 | Fluorescence competitive binding assay, fluorescence intensity (SfurOBP3; ligand concentration 2): 87733 and 85025 and 77897 | Fluorescence competitive binding assay, fluorescence intensity (SfurOBP3; ligand concentration 4): 115777 and 106868 and 104692 | Fluorescence competitive binding assay, fluorescence intensity (SfurOBP3; ligand concentration 6): 125530 and 125631 and 129726 | Fluorescence competitive binding assay, fluorescence intensity (SfurOBP3; ligand concentration 8): 107521 and 145667 and 147221 | Fluorescence competitive binding assay, fluorescence intensity (SfurOBP3; ligand concentration 10): 173091 and 157740 and 127122 | Fluorescence competitive binding assay, fluorescence intensity (SfurOBP3; ligand concentration 12): 158103 and 182941 and 142916 | Fluorescence competitive binding assay, fluorescence intensity (SfurOBP3; ligand concentration 14): 176147 and 111843 and 160442 | Fluorescence competitive binding assay, fluorescence intensity (SfurOBP3; ligand concentration 16): 151941 and 158990 and 157774 | Fluorescence competitive binding assay, fluorescence intensity (SfurOBP3; ligand concentration 18): 173084 and 168625 and 167342 | Fluorescence competitive binding assay, fluorescence intensity (SfurOBP3; ligand concentration 20): 193319 and 125518 and 175321 | IC50 (SfurOBP3; SfurOBP3, protein and 1-NPN both 2.0 µM, competitor 2-20 µM, read-out: IC50): > 20 µM
